# From ChEMBL document CHEMBL1140144 (J Med Chem, 2008)
# How the values were obtained:
# Protease [1] = molecular target: T1, Protease (Human immunodeficiency virus 1, UniProt Q9YQ12); assay: Inhibition of wild type HIV1 protease by competitive binding
# Protease [2] = molecular target: T1, Protease; assay: Inhibition of wild type HIV1 protease by uncompetitive binding
smiles,measurement,setting,value
CC(C)CN(C[C@@H](O)[C@H](Cc1ccccc1)NC(=O)O[C@H]1CCOC1)S(=O)(=O)c1ccc(N)cc1,Ki,Protease [1],6.2 nM
same,Ki,Protease [2],28 nM
